Experiments:
Experiment in all cases: KinomeScan profiling
Type in all cases: binding
[1] = target: CDKL1 (Homo sapiens, UniProt Q00532); details: CDKL1, 1 μM; read-out: % control
In short: (§1)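 At 1 μM in DMSO, compounds are run through a broad 468-member kinase panel. The luminescent read-out is normalised so that vehicle gives 100% and a positive control gives 0%; any kinase falling below 35% is treated as a target.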

[2] = target: TRKC (Homo sapiens, UniProt Q16288); details: read-out: % control
Chain of TRKC (Q16288 32-839): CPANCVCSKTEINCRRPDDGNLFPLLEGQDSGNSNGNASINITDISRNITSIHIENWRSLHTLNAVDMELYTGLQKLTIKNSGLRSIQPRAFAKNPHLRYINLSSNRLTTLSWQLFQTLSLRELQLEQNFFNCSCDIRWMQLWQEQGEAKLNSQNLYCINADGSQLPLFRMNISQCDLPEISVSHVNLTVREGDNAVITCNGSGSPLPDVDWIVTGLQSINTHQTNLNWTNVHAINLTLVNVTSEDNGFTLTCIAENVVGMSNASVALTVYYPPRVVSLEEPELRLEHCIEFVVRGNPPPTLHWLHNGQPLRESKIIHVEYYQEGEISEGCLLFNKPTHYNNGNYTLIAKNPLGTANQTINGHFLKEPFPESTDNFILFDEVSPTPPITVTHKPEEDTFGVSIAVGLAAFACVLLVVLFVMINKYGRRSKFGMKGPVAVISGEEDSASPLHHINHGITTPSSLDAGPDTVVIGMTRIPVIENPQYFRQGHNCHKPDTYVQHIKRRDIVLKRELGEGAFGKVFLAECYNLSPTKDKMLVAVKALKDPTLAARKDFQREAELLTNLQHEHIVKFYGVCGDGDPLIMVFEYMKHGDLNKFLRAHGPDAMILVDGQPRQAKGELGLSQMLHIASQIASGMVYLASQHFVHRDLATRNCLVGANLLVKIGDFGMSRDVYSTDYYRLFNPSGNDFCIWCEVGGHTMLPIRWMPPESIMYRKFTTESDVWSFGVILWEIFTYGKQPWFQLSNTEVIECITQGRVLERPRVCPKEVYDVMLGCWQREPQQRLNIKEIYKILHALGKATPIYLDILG
In short: as §1

[3] = target: T1, PIK3CG (Homo sapiens, UniProt P48736); details: read-out: % control
T1 construct: purchased KinomeScan® (panel service)
T1 sequence (P48736 whole entry): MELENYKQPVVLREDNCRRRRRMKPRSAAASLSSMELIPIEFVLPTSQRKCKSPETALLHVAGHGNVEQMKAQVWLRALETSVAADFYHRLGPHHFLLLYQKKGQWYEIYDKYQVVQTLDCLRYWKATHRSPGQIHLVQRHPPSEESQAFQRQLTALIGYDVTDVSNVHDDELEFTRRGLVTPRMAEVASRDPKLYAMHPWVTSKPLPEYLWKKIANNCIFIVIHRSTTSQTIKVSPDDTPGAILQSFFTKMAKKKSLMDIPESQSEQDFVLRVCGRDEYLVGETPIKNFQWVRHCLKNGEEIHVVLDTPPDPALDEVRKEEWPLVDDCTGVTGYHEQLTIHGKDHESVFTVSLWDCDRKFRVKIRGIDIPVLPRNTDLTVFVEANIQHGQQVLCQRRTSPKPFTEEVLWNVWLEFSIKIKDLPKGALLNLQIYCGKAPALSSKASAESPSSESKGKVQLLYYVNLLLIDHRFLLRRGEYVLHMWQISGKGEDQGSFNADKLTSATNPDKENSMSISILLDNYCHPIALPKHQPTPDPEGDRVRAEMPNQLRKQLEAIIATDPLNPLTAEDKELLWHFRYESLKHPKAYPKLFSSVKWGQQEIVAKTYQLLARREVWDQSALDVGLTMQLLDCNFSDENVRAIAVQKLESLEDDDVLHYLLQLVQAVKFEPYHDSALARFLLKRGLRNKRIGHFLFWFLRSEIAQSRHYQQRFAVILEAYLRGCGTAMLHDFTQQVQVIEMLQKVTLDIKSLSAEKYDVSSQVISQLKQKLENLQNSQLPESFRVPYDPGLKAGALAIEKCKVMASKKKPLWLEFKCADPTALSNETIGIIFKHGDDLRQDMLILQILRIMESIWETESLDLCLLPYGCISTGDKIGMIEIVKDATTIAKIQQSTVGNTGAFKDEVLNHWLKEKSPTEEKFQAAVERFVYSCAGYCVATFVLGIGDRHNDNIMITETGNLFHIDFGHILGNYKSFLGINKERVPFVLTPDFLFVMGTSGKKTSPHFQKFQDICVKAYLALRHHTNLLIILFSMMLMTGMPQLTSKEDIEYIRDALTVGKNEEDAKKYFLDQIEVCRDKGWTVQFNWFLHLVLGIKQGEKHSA
In short: as §1

[4] = target: MARK2 (Homo sapiens, UniProt Q7KZI7); details: MARK2, 1 μM; read-out: % control
Chain of MARK2 (Q7KZI7 whole entry): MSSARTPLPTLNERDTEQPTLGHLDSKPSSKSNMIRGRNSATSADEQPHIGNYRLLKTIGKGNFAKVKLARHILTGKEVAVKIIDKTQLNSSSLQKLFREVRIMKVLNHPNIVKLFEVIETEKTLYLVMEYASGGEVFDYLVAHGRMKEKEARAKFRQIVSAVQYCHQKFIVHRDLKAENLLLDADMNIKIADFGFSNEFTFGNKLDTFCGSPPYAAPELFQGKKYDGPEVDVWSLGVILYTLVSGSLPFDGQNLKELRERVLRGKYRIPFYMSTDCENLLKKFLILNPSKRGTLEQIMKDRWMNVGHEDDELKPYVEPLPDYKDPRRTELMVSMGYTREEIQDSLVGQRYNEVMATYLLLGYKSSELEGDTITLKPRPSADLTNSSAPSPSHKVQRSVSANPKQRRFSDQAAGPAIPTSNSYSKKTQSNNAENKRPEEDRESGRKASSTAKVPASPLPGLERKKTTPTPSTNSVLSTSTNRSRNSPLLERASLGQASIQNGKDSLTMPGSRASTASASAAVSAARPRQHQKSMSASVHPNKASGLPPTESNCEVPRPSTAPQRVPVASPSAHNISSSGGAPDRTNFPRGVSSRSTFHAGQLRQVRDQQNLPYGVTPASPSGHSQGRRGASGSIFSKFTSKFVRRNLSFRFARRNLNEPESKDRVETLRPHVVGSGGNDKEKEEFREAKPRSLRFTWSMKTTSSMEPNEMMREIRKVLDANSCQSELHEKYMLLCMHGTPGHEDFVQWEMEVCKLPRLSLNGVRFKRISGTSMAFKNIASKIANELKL
In short: as §1

[5] = target: HCK (Homo sapiens, UniProt P08631); details: read-out: % control
Chain of HCK (P08631 whole entry): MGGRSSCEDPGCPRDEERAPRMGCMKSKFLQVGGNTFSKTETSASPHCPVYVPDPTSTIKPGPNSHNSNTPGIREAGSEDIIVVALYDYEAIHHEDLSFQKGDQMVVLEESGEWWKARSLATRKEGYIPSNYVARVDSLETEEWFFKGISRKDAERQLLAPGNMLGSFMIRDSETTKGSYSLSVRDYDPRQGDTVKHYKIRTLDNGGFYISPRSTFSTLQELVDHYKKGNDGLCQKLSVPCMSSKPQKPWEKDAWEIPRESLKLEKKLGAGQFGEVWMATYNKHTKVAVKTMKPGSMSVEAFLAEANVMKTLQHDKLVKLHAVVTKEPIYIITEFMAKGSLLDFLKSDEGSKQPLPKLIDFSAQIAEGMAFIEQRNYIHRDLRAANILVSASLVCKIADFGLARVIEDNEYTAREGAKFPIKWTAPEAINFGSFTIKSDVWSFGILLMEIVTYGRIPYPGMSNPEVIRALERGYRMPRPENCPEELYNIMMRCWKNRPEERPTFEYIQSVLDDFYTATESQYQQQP
In short: as §1

[6] = target: T2, EPHB6 (Homo sapiens, UniProt O15197); details: EPHB6, 1 μM; read-out: % control
T2 sequence (O15197 32-1021): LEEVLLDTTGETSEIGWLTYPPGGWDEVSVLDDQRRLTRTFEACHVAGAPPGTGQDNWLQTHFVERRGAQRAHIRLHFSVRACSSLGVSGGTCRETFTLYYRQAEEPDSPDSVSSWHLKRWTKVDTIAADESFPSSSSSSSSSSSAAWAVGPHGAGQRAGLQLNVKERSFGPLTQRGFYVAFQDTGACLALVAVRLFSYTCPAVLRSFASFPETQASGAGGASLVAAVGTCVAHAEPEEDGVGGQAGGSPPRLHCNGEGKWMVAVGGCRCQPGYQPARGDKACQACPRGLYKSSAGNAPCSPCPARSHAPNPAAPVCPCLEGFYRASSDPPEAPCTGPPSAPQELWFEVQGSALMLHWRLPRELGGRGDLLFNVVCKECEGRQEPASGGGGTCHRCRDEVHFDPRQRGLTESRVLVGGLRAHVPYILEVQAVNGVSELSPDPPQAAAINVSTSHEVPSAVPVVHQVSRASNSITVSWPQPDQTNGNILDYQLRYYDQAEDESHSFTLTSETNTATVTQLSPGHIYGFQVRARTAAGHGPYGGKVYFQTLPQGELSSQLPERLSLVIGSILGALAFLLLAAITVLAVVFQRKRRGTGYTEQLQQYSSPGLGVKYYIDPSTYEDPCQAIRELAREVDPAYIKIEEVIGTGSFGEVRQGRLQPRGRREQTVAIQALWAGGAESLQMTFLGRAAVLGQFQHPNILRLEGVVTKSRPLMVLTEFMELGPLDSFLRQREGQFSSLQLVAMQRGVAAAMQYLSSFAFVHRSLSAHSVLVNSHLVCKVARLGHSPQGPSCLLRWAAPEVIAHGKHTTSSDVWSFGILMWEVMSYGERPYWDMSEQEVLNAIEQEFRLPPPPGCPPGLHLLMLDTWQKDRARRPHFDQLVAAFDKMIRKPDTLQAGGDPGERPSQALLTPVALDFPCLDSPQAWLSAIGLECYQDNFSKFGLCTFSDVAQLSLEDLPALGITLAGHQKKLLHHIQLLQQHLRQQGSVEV
In short: as §1

[7] = target: T3, MUSK (Homo sapiens, UniProt O15146); details: read-out: % control
T3 sequence (O15146 24-869): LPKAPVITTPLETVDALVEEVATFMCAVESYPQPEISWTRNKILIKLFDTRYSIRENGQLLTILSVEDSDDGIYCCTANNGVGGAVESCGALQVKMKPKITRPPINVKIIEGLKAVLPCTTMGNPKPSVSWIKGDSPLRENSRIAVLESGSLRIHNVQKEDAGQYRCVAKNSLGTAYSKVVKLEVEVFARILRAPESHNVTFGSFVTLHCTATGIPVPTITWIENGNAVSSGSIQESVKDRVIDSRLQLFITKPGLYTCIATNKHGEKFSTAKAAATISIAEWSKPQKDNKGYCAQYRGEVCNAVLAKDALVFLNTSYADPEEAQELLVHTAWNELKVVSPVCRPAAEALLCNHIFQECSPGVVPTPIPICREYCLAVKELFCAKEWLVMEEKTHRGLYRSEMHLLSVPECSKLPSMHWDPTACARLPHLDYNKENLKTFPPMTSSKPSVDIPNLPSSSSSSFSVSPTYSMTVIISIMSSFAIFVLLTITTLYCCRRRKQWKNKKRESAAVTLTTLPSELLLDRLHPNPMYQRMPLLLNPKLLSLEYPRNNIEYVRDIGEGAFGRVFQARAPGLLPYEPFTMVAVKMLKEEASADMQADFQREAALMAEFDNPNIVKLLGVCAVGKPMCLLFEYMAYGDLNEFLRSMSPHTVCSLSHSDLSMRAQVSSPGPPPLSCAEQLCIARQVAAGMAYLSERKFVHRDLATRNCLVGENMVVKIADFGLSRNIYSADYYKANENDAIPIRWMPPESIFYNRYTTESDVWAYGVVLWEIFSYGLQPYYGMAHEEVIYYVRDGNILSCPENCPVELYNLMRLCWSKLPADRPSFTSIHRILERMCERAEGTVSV
In short: as §1

[8] = target: DAPK2 (Homo sapiens, UniProt Q9UIK4); details: DAPK2, 1 μM; read-out: % control
Chain of DAPK2 (Q9UIK4 whole entry): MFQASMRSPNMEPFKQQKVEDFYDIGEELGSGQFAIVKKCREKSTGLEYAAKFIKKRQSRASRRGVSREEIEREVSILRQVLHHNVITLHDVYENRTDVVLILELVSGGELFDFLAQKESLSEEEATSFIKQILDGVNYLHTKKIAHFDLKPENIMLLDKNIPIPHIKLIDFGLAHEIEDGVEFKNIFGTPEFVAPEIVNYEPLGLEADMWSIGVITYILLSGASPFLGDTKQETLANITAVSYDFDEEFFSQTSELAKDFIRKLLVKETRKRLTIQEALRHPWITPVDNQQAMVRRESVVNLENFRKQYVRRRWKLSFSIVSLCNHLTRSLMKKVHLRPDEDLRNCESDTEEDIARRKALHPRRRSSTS
In short: as §1

[9] = target: T4, S6K1 (Homo sapiens, UniProt P23443); details: S6K1, 1 μM; read-out: % control
T4 construct: purchased KinomeScan® (panel service)
T4 sequence (P23443 whole entry): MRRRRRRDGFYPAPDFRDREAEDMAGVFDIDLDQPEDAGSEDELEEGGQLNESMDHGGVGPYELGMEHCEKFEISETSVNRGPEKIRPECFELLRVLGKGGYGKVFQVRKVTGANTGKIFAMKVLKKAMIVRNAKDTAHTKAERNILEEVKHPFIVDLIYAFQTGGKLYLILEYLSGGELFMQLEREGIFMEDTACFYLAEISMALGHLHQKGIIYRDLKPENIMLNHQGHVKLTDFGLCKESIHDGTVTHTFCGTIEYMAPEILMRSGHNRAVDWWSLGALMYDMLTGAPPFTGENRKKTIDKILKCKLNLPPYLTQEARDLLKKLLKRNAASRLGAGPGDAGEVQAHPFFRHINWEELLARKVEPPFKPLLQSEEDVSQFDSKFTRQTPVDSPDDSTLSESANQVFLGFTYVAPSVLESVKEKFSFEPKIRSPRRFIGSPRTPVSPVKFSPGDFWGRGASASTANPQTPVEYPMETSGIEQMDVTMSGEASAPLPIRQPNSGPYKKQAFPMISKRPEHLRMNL
In short: as §1

Chain of CDKL1 (Q00532 whole entry): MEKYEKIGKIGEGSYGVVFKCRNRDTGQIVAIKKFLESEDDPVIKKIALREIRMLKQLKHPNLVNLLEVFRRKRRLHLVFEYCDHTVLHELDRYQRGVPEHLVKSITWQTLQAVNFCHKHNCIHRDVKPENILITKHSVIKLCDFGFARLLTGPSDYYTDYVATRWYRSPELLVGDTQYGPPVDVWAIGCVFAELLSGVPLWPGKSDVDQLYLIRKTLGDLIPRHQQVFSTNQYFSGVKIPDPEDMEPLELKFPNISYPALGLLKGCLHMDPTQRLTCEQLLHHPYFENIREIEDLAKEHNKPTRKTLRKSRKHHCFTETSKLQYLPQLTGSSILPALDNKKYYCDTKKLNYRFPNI

Row | SMILES | remaining binding at 1 µM [1] [%] | remaining binding at 1 µM [2] [%] | remaining binding at 1 µM [3] [%] | remaining binding at 1 µM [4] [%] | remaining binding at 1 µM [5] [%] | remaining binding at 1 µM [6] [%] | remaining binding at 1 µM [7] [%] | remaining binding at 1 µM [8] [%] | remaining binding at 1 µM [9] [%]
1 | CNc1c(-c2cnn([C@H]3CCN(C(C)=O)C[C@@H]3F)c2)cnc2[nH]cc(Cl)c12 [Compound 77, 1-((3S,4S)-4-(4-(3-chloro-4-(methylamino)-1H-pyrrolo[2,3-b]pyridin-5-yl)-1H-pyrazol-1-yl)-3-fluoropiperidin-1-yl)ethan-1-one] | 76 | 51 | 99 | 86 | 100 | 55 | 100 | 72 | 50
2 | O=C(c1ccc(-c2cnc3[nH]cc(Cl)c3c2NC2CCCC2)cc1)N1CCC(N2CCOCC2)CC1 [Compound 101, (4-(3-chloro-4-(cyclopentylamino)-1H-pyrrolo[2,3-b]pyridin-5-yl)phenyl)(4-morpholinopiperidin-1-yl)methanone] | 100 | 100 | 95 | 68 | 96 | 100 | 67 | 100 | 100
3 | CNc1c(-c2ccc(C(=O)N3CCC(N4CCOCC4)CC3)cc2)cnc2[nH]cc(Cl)c12 [Compound 96, (4-(3-chloro-4-(methylamino)-1H-pyrrolo[2,3-b]pyridin-5-yl)phenyl)(4-morpholinopiperidin-1-yl)methanone] | 78 | 82 | 100 | 60 | 100 | 99 | 100 | 82 | 87
